Laboratory results: patent US20190314312A1, “COMBINATION THERAPY TO INCREASE ENDOGENOUS NITRIC OXIDE (NO) SYNTHESIS” (Yeda Research and Development Co. Ltd., priority 2016, published 2019)

What was measured:
[1] = system: C57BL/6J.OlaaHsd mice; assay: DSS-induced colitis, treatment with arginine, citrulline, NaNO2, fisetin or citrulline plus fisetin; format: in vivo, mouse
Description: Colitis was induced in Vav1^Cre:As1^f/f mice and CD11c^Cre:As1^f/f with 1.5% DSS and with 0.8% DSS in the Villin^Cre:As1^f/f (wt/vol), (Dextran Sodium Sulfate, MP Biomedicals; molecular weight 36,000-50,000 Da). The powder was dissolved in the drinking water for 6 days, followed by 5 days of supplementing regular water^20. Each group consisted of eight to ten, 8-10 weeks old, male mice. Experiments were repeated at least three times. “f/f”—flox/flox.
Colonoscopy was performed on days 7 and 11 of the experiment to monitor for severity of colitis. For the procedure, a high resolution mouse video endoscopic system was used, which consists of a miniature endoscope (scope 1.9 mm outer diameter), a xenon light source, a triple chip camera, and an air pump to achieve regulated inflation of the mouse bowel (Karl Storz, Tuttlingen, Germany). Mice were anesthetized by the administration of 4-5% of isoflurane in 100% oxygen at a rate of 0.2-0.5 L/min or by the administration of 100 mg/kg Ketamine/10 mg/kg Xylazine mixture IP, after which, the endoscope was introduced via the anus and the colon was carefully insufflated with an air pump before analysis of the colonic mucosa. The endoscopic procedure was viewed on a color monitor and digitally recorded on tape. Colitis was scored according to the Murine endoscopic index of colitis severity (MEICS), considering differences in the thickness of the bowel wall, changes in blood vessel integrity, mucosal surface, stool consistency or the presence of fibrin, scored each between 0 and 3. The cumulative score ranged from 0 (no signs of inflammation) to 15 (signs of severe inflammation)^21.
Mice were treated with 1% (wt/vol) DSS for 6 days, followed by administration of either arginine 1% (wt/vol) solution (Sigma-Aldrich, St. Louis, Mo., catalogue number A8094) in drinking water, citrulline 1% (wt/vol) (L-citrulline, Chem-Impex International), NaNO2 100 mg (Sigma-Aldrich, St. Louis, Mo., catalogue number S2252), or water as control for additional 6 days.
Fisetin was given by intraperitoneal (i.p.) injection (1 mg/animal) in 30 μL of DMSO twice weekly. The control group was injected with 30 μL of DMSO twice weekly. Each group consisted of ten, 8-weeks old, male mice. Experiments were repeated three times.
Histopathology. On the day of sacrifice, colons were removed and their length was measured. Colon was fixed in 2.5% PFA solution overnight at 4° C., then embedded in paraffin, sectioned and stained with H&E. Tissues were examined in a blinded manner by a pathologist and scored on a 0-4 scale based on the parameters of inflammation severity^20.

[2] = system: enterocytes CKO mice; assay: DSS colitis (0.8% DSS) in enterocytes CKO mice, fisetin or NaNO2; format: in vivo, mouse; conditions: 0.8% DSS 5 days, fisetin 1 mg IP twice, FIGS. 4L-N
Description: Colitis was induced on C57BL/6J.OlaaHsd mice. Mice were treated with 1% DSS for 6 days, followed by administration of either fiselin (1 mg in 30 μl DMSO IP, twice, in 3 days interval) citrulline 1% (wt/vol) solution in drinking water, the combination of both treatments or only DMSO as a control (30 μl DMSO IP, twice, in 3 days interval). […] FIGS. 4L-N—Colitis was induced on enterocytes CKO mice and compared to controls. Mice were treated with 0.8% DSS for 5 days, followed by administration with either NO donors; NaNO2 (100 mg/kg) or fisetin (1 mg in 30 μl DMSO IP, twice, in 3 days interval). […] Note that colitis severity is reduced by activating As1 in enterocytes, by citrulline and fisetin supplementation.
Colitis was induced in Vav1^Cre:As1^f/f mice and CD11c^Cre:As1^f/f with 1.5% DSS and with 0.8% DSS in the Villin^Cre:As1^f/f (wt/vol), (Dextran Sodium Sulfate, MP Biomedicals; molecular weight 36,000-50,000 Da). […]
Colonoscopy was performed on days 7 and 11 of the experiment to monitor for severity of colitis. […] The endoscopic procedure was viewed on a color monitor and digitally recorded on tape. Colitis was scored according to the Murine endoscopic index of colitis severity (MEICS), considering differences in the thickness of the bowel wall, changes in blood vessel integrity, mucosal surface, stool consistency or the presence of fibrin, scored each between 0 and 3. […]

[3] = system: Ass1; assay: Immunohistochemistry staining of distal colon sections for Ass1; format: in vivo, mouse; conditions: after colitis induction, fisetin treatment, FIG. 4A
[4] = system: CD64+, CD11c+ macrophages; assay: FACS analysis of colon CD64+, CD11c+ macrophages after colitis induction; format: in vivo, mouse; conditions: fisetin vs control, FIGS. 14D-F
Description: Colon segment was flushed with cold PBS, longitudinally cut open and rinsed to remove residual luminal contents. Tissue was cut into 3- to 5-mm pieces and incubated in HBSS medium containing EDTA 0.5 M and Hepes 10 mM at 37° C. for 20 minutes, shaken at 180 rpm, to separate epithelial fraction. Supernatant was centrifuged at 4° C. at 500 g for 10 minutes. Recovered tissue was digested in HBSS medium with 2% fetal bovine serum (FBS), 0.05% collagenase II and 0.05% DNase I (Sigma) for 40 minutes. at 37° C., shaken at 180 rpm. LP cells were filtered through 65 μm mesh and centrifuged at 4° C. at 500 g for 10 minutes. The present inventors prepared single cell suspensions from mouse colon by enzymatic digestion and analyzed by polychromatic flow cytometry. Samples were stained with conjugated antibodies or matching isotype controls according to manufacturer's instructions. Data were acquired on an LSRII (BD Biosciences) or FACSCalibur instrument (Becton-Dickinson) with CellQuest software, with a MacsQuant instrument (Miltenyi, Bergisch Gladbach, Germany), and analyzed using BD FACSDiva 6 or FlowJo software (version 7.6.5, or version vX.0.7 Tree Star Inc) or MacsQuant. Colon cells were stained for 30 min at 4° C. in flow cytometry buffer (PBS, 10% FCS and 0.02% azide). For antigens that require intracellular staining (As1, iNOS and S-nitrosocystein), cell surface staining was followed by cell fixation and permeabilization with the Cytofix/Cytoperm kit (BD Biosciences) according to the manufacturer's instructions. […] After staining for cell surface antigens, intracellular NO was detected by incubation of cells for 15 min at 37° C. with 10 μM DAF-FM diacetate followed by extensive washing, according to the manufacturer's instructions (Molecular Probes). […] As1 was detected using anti-As1-ALEXA FLUOR® 488 (BD Biosciences), iNOS using anti-iNOS followed by anti-rat 488 (Jackson ImmunoResearch), and nitrosylation using anti-S-nitrosocystein (from abcam) followed by anti-mouse 488 (Jackson ImmunoResearch).

[5] = system: lipopolysaccharide (LPS)-stimulated mouse primary peritoneal macrophages; conditions: in vitro; cited from earlier work

In the case of `O=c1c(O)c(-c2ccc(O)c(O)c2)oc2cc(O)ccc12` [fisetin, 3,7, 3′, 4′-tetrahydroxyflavone], the weight loss ([1]; 1% DSS 6 days, then fisetin 1 mg IP twice, citrulline 1% in drinking water or both vs DMSO control, FIG. 4B) was “significant weight loss is documented in the control group compared to the treated mice”, the “colitis severity in all parameters” value ([1]; fisetin vs control, FIG. 4A-E) was “improved colitis severity in all parameters” and the colon length ([1]; fisetin, citrulline or both vs DMSO control, FIG. 4D) was “significant longer”. For the same molecule, the histological score ([1]; fisetin, citrulline or both vs DMSO control, FIG. 4E) was “significant reduction”, the “effect of treatment on colitis (survival, body weight gain, colitis score)” value [2] was “did not have an effect” and the “effect of treatment on colitis (survival, body weight gain, colitis score)” value ([2]; listed as Fisetin) was “not in the enterocytes CKO mice”. For the same molecule, the “Ass1 expression in distal colon sections (enterocytes)” value [3] was “up regulation”, the “Ass1 expression in distal colon sections (enterocytes)” value ([3]; listed as fesitin) was “upregulated” and the As1 levels [4] was “decrease”. For the same molecule, the NO levels [4] was “decrease”, the iNOS levels [4] was “decrease” and the pro-inflammatory cytokine [5] was “significantly reduces pro-inflammatory cytokine”.
